Measured values reported in US20110172223A1, “Substituted Aryl Sulfone Derivatives as Calcium Channel Blockers” (priority 2008, published 2011).

Legend:
[1] = target: T1, Human Cav2.2 channels (Homo sapiens, UniProt Q00975); test: Fluorescent assay for Cav2.2 channels using potassium depolarization to initiate channel opening (Assay Example 1); type: cell-based; details: Table 2
T1 construct: expressed in transfected cells
Description: Fluorescent Assay for Cav2.2 Channels Using Potassium Depolarization to Initiate Channel Opening
(§1) Human Cav2.2 channels were stably expressed in KEK293 cells along with alpha2-delta and beta subunits of voltage-gated calcium channels. An inwardly rectifying potassium channel (Kir2.3) was also expressed in these cells to allow more precise control of the cell membrane potential by extracellular potassium concentration. At low bath potassium concentration, the membrane potential is relatively negative, and is depolarized as the bath potassium concentration is raised. In this way, the bath potassium concentration can be used to regulate the voltage-dependent conformations of the channels. […]
(§2) Calcium influx through Cav2.2 channels is determined using a calcium-sensitive fluorescent dye in combination with a fluorescent plate reader. Fluorescent changes were measured with either a VIPR (Aurora Instruments) or FLIPR (Molecular Devices) plate reader.
(§3) • 1. […] Read cell plate on VIPR instrument, Excitation=480 nm, Emission=535 nm • 9. With VIPR continuously reading, add 0.1 ml (96-well plate) or 0.03 ml (384-well plate) of Depolarization Buffer, which is 2× the final assay concentration, to the cell plate.

[2] = target: T2, N-type calcium channel (CaV2.2) (Homo sapiens, UniProt Q00975); test: N-type calcium channel antagonist activity in the aforementioned assays (Assay Examples 1-3: fluorescent, IonWorks HT, PatchXpress/manual patch clamp); type: cell-based; details: antagonizing the N-type calcium channel; which of Assay Examples 1-3 is not specified
T2 construct: expressed in transfected cells
Description: as §1, §2, §3
Block of N-type calcium channels is evaluated utilizing the IonWorks HT 384 well automated patch clamp electrophysiology device. […]

T1 sequence (Q00975 whole entry): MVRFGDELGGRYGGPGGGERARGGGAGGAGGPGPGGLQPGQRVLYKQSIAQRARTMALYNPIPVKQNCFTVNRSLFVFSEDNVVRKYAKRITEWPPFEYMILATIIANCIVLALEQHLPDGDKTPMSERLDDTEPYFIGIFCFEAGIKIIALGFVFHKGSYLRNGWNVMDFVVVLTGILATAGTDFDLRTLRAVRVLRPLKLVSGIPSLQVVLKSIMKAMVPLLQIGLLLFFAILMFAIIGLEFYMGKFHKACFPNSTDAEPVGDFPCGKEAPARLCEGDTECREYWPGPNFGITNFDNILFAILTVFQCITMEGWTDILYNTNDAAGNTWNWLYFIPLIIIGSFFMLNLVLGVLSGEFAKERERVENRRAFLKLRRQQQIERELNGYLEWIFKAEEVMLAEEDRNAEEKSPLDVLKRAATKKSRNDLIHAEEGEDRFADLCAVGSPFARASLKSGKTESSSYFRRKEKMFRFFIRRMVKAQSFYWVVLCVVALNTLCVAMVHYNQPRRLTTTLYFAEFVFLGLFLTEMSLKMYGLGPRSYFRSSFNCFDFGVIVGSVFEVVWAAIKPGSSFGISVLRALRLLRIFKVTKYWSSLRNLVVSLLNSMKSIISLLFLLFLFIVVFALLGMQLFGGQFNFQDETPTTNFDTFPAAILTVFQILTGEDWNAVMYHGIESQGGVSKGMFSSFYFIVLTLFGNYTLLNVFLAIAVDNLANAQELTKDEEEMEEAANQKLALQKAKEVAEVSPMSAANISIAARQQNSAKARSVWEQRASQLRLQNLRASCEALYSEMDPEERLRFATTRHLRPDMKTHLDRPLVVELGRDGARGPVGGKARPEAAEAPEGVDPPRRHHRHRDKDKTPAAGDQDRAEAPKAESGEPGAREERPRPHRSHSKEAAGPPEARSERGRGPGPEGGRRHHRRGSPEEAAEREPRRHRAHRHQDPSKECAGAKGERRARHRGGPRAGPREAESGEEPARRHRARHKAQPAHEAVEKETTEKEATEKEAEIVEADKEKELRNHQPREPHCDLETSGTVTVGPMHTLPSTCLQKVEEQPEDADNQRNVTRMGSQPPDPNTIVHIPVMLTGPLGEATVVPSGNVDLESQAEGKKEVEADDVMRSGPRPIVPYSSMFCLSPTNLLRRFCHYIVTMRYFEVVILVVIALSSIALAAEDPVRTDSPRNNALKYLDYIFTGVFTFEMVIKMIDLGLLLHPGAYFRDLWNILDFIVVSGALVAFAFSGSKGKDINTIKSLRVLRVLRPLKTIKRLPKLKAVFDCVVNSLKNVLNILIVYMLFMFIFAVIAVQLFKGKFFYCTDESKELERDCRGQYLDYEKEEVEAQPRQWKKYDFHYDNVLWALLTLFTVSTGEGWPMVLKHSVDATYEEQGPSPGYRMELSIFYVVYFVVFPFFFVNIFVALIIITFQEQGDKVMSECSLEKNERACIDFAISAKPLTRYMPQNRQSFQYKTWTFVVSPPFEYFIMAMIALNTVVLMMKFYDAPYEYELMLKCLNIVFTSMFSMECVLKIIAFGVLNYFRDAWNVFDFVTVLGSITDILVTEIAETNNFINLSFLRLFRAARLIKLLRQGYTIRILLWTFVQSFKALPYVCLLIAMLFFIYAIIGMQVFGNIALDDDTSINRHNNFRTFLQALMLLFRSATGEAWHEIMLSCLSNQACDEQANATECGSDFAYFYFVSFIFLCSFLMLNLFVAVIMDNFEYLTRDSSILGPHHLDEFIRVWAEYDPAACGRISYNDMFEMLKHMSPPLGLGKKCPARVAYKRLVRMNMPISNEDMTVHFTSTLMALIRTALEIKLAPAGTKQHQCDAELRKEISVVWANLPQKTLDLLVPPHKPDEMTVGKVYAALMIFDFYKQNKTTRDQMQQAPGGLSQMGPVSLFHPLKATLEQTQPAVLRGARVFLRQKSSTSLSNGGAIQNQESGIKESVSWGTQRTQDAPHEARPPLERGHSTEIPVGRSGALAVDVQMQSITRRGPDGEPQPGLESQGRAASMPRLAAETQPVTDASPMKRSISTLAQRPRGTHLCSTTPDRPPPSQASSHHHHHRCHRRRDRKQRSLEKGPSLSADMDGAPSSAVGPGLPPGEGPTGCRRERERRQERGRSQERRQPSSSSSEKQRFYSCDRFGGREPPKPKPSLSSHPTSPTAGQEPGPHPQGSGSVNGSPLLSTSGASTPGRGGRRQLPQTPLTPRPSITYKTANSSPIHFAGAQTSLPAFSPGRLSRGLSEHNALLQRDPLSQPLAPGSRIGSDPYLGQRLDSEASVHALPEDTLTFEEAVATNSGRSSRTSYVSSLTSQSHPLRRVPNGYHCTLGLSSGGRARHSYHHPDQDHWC
T1 sequence (P54289 25-946 partner limits assumed): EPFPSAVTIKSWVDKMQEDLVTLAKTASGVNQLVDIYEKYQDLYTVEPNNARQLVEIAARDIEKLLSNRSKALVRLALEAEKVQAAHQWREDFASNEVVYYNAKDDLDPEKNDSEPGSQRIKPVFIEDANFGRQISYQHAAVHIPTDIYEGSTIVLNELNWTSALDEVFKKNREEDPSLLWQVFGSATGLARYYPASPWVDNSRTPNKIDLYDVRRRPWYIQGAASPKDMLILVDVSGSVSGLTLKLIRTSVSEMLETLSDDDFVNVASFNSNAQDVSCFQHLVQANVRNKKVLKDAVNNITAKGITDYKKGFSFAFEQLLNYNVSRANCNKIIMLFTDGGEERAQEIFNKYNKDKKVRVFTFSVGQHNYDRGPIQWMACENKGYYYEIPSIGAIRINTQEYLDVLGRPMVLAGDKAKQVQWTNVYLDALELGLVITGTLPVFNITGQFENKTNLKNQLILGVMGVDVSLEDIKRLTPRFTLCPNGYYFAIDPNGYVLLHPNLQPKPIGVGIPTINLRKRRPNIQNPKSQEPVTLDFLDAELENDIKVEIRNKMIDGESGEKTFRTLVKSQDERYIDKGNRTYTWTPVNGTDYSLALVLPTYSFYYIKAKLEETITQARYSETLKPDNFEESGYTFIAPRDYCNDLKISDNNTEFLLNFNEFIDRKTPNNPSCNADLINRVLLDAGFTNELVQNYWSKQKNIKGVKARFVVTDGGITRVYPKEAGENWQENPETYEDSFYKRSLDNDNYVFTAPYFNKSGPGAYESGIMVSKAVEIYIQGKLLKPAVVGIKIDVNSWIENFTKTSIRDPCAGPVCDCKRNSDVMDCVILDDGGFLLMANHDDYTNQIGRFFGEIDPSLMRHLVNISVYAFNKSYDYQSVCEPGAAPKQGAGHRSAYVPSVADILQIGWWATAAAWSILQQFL
T1 sequence (P54289 947-1103 partner limits assumed): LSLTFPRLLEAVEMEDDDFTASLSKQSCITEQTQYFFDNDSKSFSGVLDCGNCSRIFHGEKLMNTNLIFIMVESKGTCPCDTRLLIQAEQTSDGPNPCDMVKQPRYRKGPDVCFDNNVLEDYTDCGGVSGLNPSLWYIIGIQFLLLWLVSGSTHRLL
T1 sequence (P54284 whole entry partner): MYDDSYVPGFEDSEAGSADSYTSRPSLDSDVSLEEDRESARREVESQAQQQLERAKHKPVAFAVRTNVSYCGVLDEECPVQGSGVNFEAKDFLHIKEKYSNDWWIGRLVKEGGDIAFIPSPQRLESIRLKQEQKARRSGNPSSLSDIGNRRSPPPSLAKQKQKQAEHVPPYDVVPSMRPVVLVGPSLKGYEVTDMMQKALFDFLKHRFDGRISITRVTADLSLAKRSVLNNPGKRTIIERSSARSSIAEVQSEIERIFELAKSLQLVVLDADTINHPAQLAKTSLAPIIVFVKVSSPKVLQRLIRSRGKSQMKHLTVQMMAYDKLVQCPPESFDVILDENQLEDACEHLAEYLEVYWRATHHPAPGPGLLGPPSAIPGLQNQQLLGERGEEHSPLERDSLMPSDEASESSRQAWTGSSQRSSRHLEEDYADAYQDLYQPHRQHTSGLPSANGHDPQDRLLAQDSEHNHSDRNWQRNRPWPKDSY
T2 sequence (Q00975 whole entry): as the sequence (Q00975 whole entry) above
T2 sequence (P54289 25-946 partner limits assumed): as the sequence (P54289 25-946 partner limits assumed) above
T2 sequence (P54289 947-1103 partner limits assumed): as the sequence (P54289 947-1103 partner limits assumed) above
T2 sequence (P54284 whole entry partner): as the sequence (P54284 whole entry partner) above

Row | SMILES | IC50 [1] | IC50 [2]
1 | CC(C)(C1CN(c2ccc(C(F)(F)F)cc2)C(=O)O1)S(=O)(=O)c1cccc(C(F)(F)F)c1 (stereo not drawn) | 745 nM | –
2 | CC(C)([C@H]1CN(c2ccc(C(F)(F)F)cn2)C(=O)CO1)S(=O)(=O)c1cccc(C(F)(F)F)c1 [drawing 26] | 1510 nM | –
3 | CC(C)([C@H]1CN(c2ccc(C(F)(F)F)cn2)C(=O)CO1)S(=O)(=O)c1cccc(C(F)(F)F)c1 [Example 6, (6R)-6-(1-methyl-1-{[3-(trifluoromethyl)phenyl]sulfonyl}ethyl)-4-[5-(trifluoromethyl)pyridin-2-yl]morpholin-3-one] | – | 1520 nM
